Source: Sander's compilation of Henry's law constants (doi:10.1002/etc.5620201008)
Several values for one entry are separate records, joined by “and”; a condition that tells them apart may be missing. Equal entries are not always repeated.

What was measured:
Conditions in all cases: reference: Kochetkov et al. (2001)
[1] = Henry solubility constant Hcp at 301 K (mol/(m3 Pa))
[2] = Henry solubility constant Hcp at 299 K (mol/(m3 Pa))
[3] = Henry solubility constant Hcp at 300 K (mol/(m3 Pa))

Structure (SMILES)	Henry solubility constant Hcp at 299 K [2]	Henry solubility constant Hcp at 300 K [3]	further results
c1ccccc1 [benzene]	–	–	Henry solubility constant Hcp at 301 K [1]: 0.0021 and 0.0017
C[Si](C)(C)O[Si](C)(C)C [hexamethyldisiloxane]	–	0.00017 and 0.00031	–
C[Si](C)(C)O[Si](C)(C)O[Si](C)(C)C [octamethyltrisiloxane]	–	3.3e-06 and 2.7e-06	–

Further lines, with some results ahead:

Henry solubility constant Hcp at 299 K [2]	Henry solubility constant Hcp at 300 K [3]	Structure (SMILES)	further results
3.4e-05 and 3.1e-05	–	C[Si]1(C)O[Si](C)(C)O[Si](C)(C)O[Si](C)(C)O[Si](C)(C)O1 [decamethylcyclopentasiloxane]	–
6.8e-05 and 0.00015	–	C[Si]1(C)O[Si](C)(C)O[Si](C)(C)O[Si](C)(C)O[Si](C)(C)O[Si](C)(C)O1 [dodecamethylcyclohexasiloxane]	–
–	5.8e-07	C[Si](C)(C)O[Si](C)(C)O[Si](C)(C)O[Si](C)(C)C [decamethyltetrasiloxane]	–
